Source: PMC4992173, “Divergent synthesis and identification of the cellular targets of deoxyelephantopins” (Nature Communications, 2016)

Test system: four different cancer cell lines (MCF7, Caco-2, HeLa, MDA-MB-231)
Assay: Cell viability (EC50) in four different cancer cell lines, 3 days, nuclei count
Type: cell-based
Conditions: all four tested cell lines
Description: We began our biological investigations by assaying the cytotoxicity of natural deoxyelephantopin (DEP) and its unnatural analogues in four different cancer cell lines (Fig. 5a, Supplementary Figs 6–8).
Figure 5 Assessing the cytotoxicity of deoxyelephantopin (DEP) and analogues. (a) Cell viability measurements in four different cancer cell lines. Cells were treated with compounds for 3 days, the nuclei were stained with DAPI and counted (EC50 values±s.d. shown; n=3). **P<0.005 and ***P<0.0005 by two-sided Student's t-test. (b) Detection of caspase activation and apoptosis in MCF7 cells using FITC-VAD-FMK fluorescent probe (top) or Annexin V staining (bottom). The cells were treated with 1 μM staurosporine (positive control) or 20 μM deoxyelephantopin for 8 h. Confocal microscopy images are shown. EC50, effector concentration for half-maximum response. Scale bars, 30μm. […]
Biological materials. […] Protein concentration was determined using the Bradford assay (Bio-Rad).
Cell culture and preparation of lysates. […] Cells were lysed by sonication to form cell lysates and protein concentration was determined using the Bradford […]
’ cells/mL and HeLa: 1 ’ cells/mL) in a 96-well plate and allowed to attach overnight. […] Cells were imaged using a SpectraMax i3 plate reader equipped with a SpectraMax MiniMax imaging cytometer (Molecular Devices). […]
Caspase activity labeling for fluorescence cell imaging. […]

## C#CCC[C@H](OC(=O)C(=C)C)[C@H]1C(=C)C(=O)O[C@@H]1c1ccccc1 [24c]
  cytotoxicity rank among alkyne-tagged analogues 24: highest cytotoxicity
